Laboratory results: patent US20260265238A1, “COMPOUNDS AND PHARMACEUTICAL COMPOSITIONS THAT DEGRADE SWI/SNF-RELATED MATRIX-ASSOCIATED ACTIN-DEPENDENT REGULATOR OF CHROMATIN SUBFAMILY A” (Plexium, Inc., priority 2023, published 2026)

What was measured:
[1] = target: T1, SMARCA4-HiBiT HeLa cells (protein which is expressed from the SMARCA4 gene) (Homo sapiens, UniProt P51532); experiment: SMARCA4 degradation assay (HiBiT-fusion HeLa cell line, 24 h, luminescence); type: cell-based
T1 construct: protein which is expressed from the SMARCA2 and SMARCA4 genes; host or cells: HeLa (SMARCA4-HiBiT engineered line)
T1 sequence (P51532 whole entry, the tested form may be a part): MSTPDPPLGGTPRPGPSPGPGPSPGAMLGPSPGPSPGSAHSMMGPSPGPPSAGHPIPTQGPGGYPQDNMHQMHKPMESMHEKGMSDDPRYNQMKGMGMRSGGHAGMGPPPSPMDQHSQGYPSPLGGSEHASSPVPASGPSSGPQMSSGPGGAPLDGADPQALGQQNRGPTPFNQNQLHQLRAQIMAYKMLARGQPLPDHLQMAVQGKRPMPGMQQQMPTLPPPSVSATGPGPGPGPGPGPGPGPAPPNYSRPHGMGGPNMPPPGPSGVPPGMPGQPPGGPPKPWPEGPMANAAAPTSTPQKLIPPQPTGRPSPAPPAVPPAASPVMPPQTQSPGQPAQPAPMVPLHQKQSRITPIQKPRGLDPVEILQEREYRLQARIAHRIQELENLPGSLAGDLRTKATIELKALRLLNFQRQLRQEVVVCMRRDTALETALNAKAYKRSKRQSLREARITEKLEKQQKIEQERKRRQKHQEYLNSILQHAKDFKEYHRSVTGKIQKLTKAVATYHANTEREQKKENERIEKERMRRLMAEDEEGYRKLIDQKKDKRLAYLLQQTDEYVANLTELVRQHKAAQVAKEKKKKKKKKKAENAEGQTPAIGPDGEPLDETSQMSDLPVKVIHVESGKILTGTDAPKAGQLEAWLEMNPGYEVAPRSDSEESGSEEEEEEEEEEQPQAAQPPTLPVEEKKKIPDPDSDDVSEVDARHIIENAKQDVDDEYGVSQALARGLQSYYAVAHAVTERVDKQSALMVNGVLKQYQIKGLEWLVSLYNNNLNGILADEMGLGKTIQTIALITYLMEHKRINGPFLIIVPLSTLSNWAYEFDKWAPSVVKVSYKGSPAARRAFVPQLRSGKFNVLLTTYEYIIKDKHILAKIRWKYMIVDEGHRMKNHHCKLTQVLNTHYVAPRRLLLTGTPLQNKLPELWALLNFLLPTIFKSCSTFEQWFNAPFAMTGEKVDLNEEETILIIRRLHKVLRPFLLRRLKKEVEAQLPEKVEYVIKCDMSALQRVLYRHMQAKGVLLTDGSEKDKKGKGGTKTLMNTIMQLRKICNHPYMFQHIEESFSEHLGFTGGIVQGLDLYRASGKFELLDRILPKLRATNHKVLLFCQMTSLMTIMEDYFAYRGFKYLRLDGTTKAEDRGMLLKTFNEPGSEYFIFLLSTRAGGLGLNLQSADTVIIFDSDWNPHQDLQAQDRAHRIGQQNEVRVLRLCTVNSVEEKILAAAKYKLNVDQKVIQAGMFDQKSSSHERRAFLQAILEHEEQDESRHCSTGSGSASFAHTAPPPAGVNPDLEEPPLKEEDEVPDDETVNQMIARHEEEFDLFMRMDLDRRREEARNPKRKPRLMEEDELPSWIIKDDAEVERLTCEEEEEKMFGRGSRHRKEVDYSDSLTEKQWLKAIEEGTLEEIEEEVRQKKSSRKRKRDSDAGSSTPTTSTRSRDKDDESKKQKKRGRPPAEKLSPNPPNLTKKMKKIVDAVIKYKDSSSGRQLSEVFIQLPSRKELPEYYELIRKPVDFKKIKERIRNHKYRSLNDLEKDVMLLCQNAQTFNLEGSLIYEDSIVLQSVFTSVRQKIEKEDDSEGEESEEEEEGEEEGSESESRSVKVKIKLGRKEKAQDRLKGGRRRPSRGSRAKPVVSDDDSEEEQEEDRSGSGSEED
Method: (§1) SMARCA2 and SMARCA4 Degradation Assay
(§2) Degradation of protein which is expressed from the SMARCA2 and SMARCA4 genes was monitored using engineered HiBiT-fusion HeLa cell lines from Promega. In brief, 384-well white opaque plates (Greiner) were seeded with SMARCA2-HiBiT or SMARCA4-HiBiT HeLa cells at 8,000 cells/well and incubated overnight at 37° C. to allow cell attachment. After overnight incubation, test compounds were added in a 10-point dilution series (typically 10 μM to 300 pM) using a TECAN D300e Digital Dispenser, and plates were subsequently incubated for 24 hours at 37° C. 24-hours post-treatment, protein levels were quantified with the addition of HiBiT lytic buffer, LgBiT protein, and HiBiT substrate, according to manufacturer's specifications. Plates were incubated on an orbital plate shaker for 10 minutes at room temperature. Resulting luminescent values were read out using a ClarioStar plate reader and used to construct dose-response curves and calculation of degradation DC50s (GraphPad Prism).
(§3) Activity of the tested compounds is provided in Table 4 below as follows: A=DC50<0.050 μM; B=0.05 μM<DC50<0.50 μM; C=<0.5 μM<DC50<5.0 μM; D=DC50>5.0 μM. For SMARCA2 and SMARCA4 degradation activity @1 μM, +++=>70%; ++=30-70%; +=<30%.

[2] = target: T2, SMARCA2-HiBiT HeLa cells (protein which is expressed from the SMARCA2 gene) (Homo sapiens, UniProt P51531); experiment: SMARCA2 degradation assay (HiBiT-fusion HeLa cell line, 24 h, luminescence); type: cell-based
T2 construct: protein which is expressed from the SMARCA2 and SMARCA4 genes; host or cells: HeLa (SMARCA2-HiBiT engineered line)
T2 sequence (P51531 whole entry, the tested form may be a part): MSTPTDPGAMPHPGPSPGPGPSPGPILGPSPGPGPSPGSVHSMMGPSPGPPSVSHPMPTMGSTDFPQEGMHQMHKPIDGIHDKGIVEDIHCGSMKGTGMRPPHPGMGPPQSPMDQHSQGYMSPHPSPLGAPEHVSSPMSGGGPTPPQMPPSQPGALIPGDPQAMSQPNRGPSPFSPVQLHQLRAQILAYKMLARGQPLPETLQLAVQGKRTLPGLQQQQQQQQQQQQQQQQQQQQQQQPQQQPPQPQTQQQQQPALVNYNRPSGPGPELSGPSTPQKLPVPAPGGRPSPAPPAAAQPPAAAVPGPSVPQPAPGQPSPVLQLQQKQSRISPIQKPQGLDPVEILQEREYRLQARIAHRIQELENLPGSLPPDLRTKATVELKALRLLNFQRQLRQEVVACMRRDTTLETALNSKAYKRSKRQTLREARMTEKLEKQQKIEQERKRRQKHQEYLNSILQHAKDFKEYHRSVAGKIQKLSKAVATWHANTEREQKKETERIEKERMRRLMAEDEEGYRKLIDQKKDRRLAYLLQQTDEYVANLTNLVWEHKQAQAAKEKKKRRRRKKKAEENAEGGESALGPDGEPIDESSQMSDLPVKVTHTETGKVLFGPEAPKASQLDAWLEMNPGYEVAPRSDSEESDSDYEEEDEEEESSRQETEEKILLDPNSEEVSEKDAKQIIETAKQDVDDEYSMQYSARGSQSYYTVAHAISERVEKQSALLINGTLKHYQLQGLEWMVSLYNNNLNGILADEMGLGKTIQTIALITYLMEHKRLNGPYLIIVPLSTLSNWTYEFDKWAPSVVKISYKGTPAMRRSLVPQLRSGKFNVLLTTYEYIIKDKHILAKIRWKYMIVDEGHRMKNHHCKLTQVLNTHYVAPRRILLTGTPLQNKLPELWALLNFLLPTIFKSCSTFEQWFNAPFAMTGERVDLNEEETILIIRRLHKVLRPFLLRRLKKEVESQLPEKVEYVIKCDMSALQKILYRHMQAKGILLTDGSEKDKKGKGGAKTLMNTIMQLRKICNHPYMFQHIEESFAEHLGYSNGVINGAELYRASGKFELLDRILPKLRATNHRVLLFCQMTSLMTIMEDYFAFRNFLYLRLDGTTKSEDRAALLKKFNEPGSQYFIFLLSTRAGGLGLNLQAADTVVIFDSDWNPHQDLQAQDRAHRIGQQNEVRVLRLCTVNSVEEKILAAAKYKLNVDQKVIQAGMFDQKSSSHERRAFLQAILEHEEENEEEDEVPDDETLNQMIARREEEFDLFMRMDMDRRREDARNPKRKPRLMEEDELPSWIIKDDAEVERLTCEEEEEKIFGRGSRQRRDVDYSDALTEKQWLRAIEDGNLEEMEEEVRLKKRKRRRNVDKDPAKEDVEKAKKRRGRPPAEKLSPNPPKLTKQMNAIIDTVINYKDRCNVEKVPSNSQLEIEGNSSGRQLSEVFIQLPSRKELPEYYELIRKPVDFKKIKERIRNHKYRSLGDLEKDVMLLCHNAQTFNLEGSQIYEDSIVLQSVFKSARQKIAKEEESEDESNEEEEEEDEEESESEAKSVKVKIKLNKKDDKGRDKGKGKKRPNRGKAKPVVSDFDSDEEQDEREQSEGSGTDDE
Method: as §1, §2, §3

Row | DC50 [1] | inhibition at 1 µM [1] | DC50 [2] | SMARCA2 % Degradation @ 1 μM [2] | Structure (SMILES)
1 | 500 to 5000 nM | < 30% | 500 to 5000 nM | ++ (++=30-70%) | Nc1nnc(-c2ccccc2O)cc1N1CCCN(c2ccnc(C#CCNc3ncco3)n2)CC1 [Compound P-15, 2-(6-amino-5-(4-(2-(3-(oxazol-2-ylamino)prop-1-yn-1-yl)pyrimidin-4-yl)-1,4-diazepan-1-yl)pyridazin-3-yl)phenol]
2 | 500 to 5000 nM | < 30% | 500 to 5000 nM | + (+=<30%) | C[C@H]1CN(c2ccnc(C#CCNC(=O)c3cc4ncccn4n3)n2)C[C@H](C)N1c1cc(-c2ccccc2O)nnc1N [Compound P-16, N-(3-(4-((3S,5S)-4-(3-amino-6-(2-hydroxyphenyl)pyridazin-4-y1)-3,5-dimethylpiperazin-1-yl)pyrimidin-2-yl)prop-2-yn-1-yl)pyrazolo[1,5-a]pyrimidine-2-carboxamide]
3 | 500 to 5000 nM | 30 to 70% | 500 to 5000 nM | ++ (++=30-70%) | Nc1nnc(-c2ccccc2O)cc1N1CC2CC1CN(c1ccnc(C#CCNC(=O)c3cc4ncccn4n3)n1)C2 (stereo not drawn) [Compound P-17, N-(3-(4-(6-(3-amino-6-(2-hydroxyphenyl)pyridazin-4-yl)-3,6-diazabicyclo[3.2.1]octan-3-yl)pyrimidin-2-yl)prop-2-yn-1-yl)pyrazolo[1,5-a]pyrimidine-2-carboxamide]
4 | 50 to 500 nM | 30 to 70% | 500 to 5000 nM | + (+=<30%) | Nc1nnc(-c2ccccc2O)cc1N1CC2C1CCN2c1ccnc(C#CCNC(=O)c2cc3ncccn3n2)n1 (stereo not drawn) [Compound P-18, N-(3-(4-(6-(3-amino-6-(2-hydroxyphenyl)pyridazin-4-yl)-2,6-diazabicyclo[3.2.0]heptan-2-yl)pyrimidin-2-y1)prop-2-yn-1-yl)pyrazolo[1,5-a]pyrimidine-2-carboxamide]
5 | 500 to 5000 nM | 30 to 70% | 500 to 5000 nM | ++ (++=30-70%) | CC1CCN(c2ccnc(C#CCNC(=O)c3cc4ncccn4n3)n2)CCN1c1cc(-c2ccccc2O)nnc1N (stereo not drawn) [Compound P-19, N-(3-(4-(4-(3-amino-6-(2-hydroxyphenyl)pyridazin-4-yl)-5-methyl-1,4-diazepan-1-yl)pyrimidin-2-yl)prop-2-yn-1-yl)pyrazolo[1,5-a]pyrimidine-2-carboxamide]
6 | 50 to 500 nM | 30 to 70% | 50 to 500 nM | ++ (++=30-70%) | CC1CN(c2cc(-c3ccccc3O)nnc2N)CCCN1c1ccnc(C#CCNC(=O)c2cc3ncccn3n2)n1 (stereo not drawn) [Compound P-20, N-(3-(4-(4-(3-amino-6-(2-hydroxyphenyl)pyridazin-4-yl)-2-methyl-1,4-diazepan-1-yl)pyrimidin-2-yl)prop-2-yn-1-yl)pyrazolo[1,5-a]pyrimidine-2-carboxamide]
7 | 50 to 500 nM | 30 to 70% | 50 to 500 nM | ++ (++=30-70%) | Cn1ccc(NCC#Cc2nccc(N3CCCN(c4cc(-c5ccccc5O)nnc4N)CC3)n2)n1 [Compound P-21, 2-(6-amino-5-(4-(2-(3-((1-methyl-1H-pyrazol-3-yl)amino)prop-1-yn-1-yl)pyrimidin-4-yl)-1,4-diazepan-1-yl)pyridazin-3-yl)phenol]
8 | 50 to 500 nM | 30 to 70% | 50 to 500 nM | ++ (++=30-70%) | Nc1nnc(-c2ccccc2O)cc1N1CCCN(c2ccnc(C#CCCNC(=O)c3cc4ncccn4n3)n2)CC1 [Compound P-23, N-(4-(4-(4-(3-amino-6-(2-hydroxyphenyl)pyridazin-4-yl)-1,4-diazepan-1-yl)pyrimidin-2-yl)but-3-yn-1-yl)pyrazolo[1,5-a]pyrimidine-2-carboxamide]
9 | < 50 nM | > 70% | < 50 nM | +++ (+++=>70%) | CN(CC#Cc1nccc(N2CCCN(c3cc(-c4ccccc4O)nnc3N)CC2)n1)C(=O)c1cc2ncccn2n1 [Compound P-24, N-(3-(4-(4-(3-amino-6-(2-hydroxyphenyl)pyridazin-4-yl)-1,4-diazepan-1-yl)pyrimidin-2-yl)prop-2-yn-1-yl)-N-methylpyrazolo[1,5-a]pyrimidine-2-carboxamide]
10 | 50 to 500 nM | > 70% | 50 to 500 nM | +++ (+++=>70%) | Nc1nnc(-c2ccccc2O)cc1N1C[C@H]2C[C@@H]1CN2c1ccnc(C#CCNC(=O)c2cc3ncccn3n2)n1 [Compound P-25, N-(3-(4-((1R,4R)-5-(3-amino-6-(2-hydroxyphenyl)pyridazin-4-yl)-2,5-diazabicyclo[2.2.1]heptan-2-yl)pyrimidin-2-yl)prop-2-yn-1-yl)pyrazolo[1,5-a]pyrimidine-2-carboxamide]
11 | 50 to 500 nM | > 70% | 50 to 500 nM | +++ (+++=>70%) | Nc1nnc(-c2ccccc2O)cc1N1CCCN(c2ccnc(C#CCNc3nc4ccccc4o3)n2)CC1 [Compound P-26, 2-(6-amino-5-(4-(2-(3-(benzo[d]oxazol-2-ylamino)prop-1-yn-1-yl)pyrimidin-4-yl)-1,4-diazepan-1-yl)pyridazin-3-yl)phenol]
12 | 50 to 500 nM | > 70% | 50 to 500 nM | +++ (+++=>70%) | CC1CN(c2ccnc(C#CCNC(=O)c3cc4ncccn4n3)n2)CCN(c2cc(-c3ccccc3O)nnc2N)C1 (stereo not drawn) [Compound P-27, N-(3-(4-(4-(3-amino-6-(2-hydroxyphenyl)pyridazin-4-yl)-6-methyl-1,4-diazepan-1-yl)pyrimidin-2-yl)prop-2-yn-1-yl)pyrazolo[1,5-a]pyrimidine-2-carboxamide]
13 | < 50 nM | 30 to 70% | 50 to 500 nM | ++ (++=30-70%) | Nc1nnc(-c2ccccc2O)cc1N1CCN(c2ccnc(C#CCNC(=O)c3cc4ncccn4n3)n2)C2CC21 (stereo not drawn) [Compound P-28, N-(3-(4-(5-(3-amino-6-(2-hydroxyphenyl)pyridazin-4-yl)-2,5-diazabicyclo[4.1.0]heptan-2-yl)pyrimidin-2-yl)prop-2-yn-1-yl)pyrazolo[1,5-a]pyrimidine-2-carboxamide]
14 | 50 to 500 nM | > 70% | 50 to 500 nM | +++ (+++=>70%) | CC1CN(c2ccnc(C#CCNC(=O)c3cc4ncccn4n3)n2)CCCN1c1cc(-c2ccccc2O)nnc1N (stereo not drawn) [Compound P-29, N-(3-(4-(4-(3-amino-6-(2-hydroxyphenyl)pyridazin-4-yl)-3-methyl-1,4-diazepan-1-yl)pyrimidin-2-yl)prop-2-yn-1-yl)pyrazolo[1,5-a]pyrimidine-2-carboxamide]
15 | 500 to 5000 nM | 30 to 70% | 500 to 5000 nM | ++ (++=30-70%) | Nc1nnc(-c2ccccc2O)cc1N1C[C@@H]2C[C@H]1CN2c1ccnc(C#CCNC(=O)c2cc3ncccn3n2)n1 [Compound P-30, N-(3-(4-((1S,4S)-5-(3-amino-6-(2-hydroxyphenyl)pyridazin-4-yl)-2,5-diazabicyclo[2.2.1]heptan-2-yl)pyrimidin-2-yl)prop-2-yn-1-yl)pyrazolo[1,5-a]pyrimidine-2-carboxamide]
16 | 50 to 500 nM | 30 to 70% | 50 to 500 nM | ++ (++=30-70%) | Nc1nnc(-c2ccccc2O)cc1N1CC2(CCN(c3ccnc(C#CCNC(=O)c4cc5ncccn5n4)n3)CC2)C1 [Compound P-31, N-(3-(4-(2-(3-amino-6-(2-hydroxyphenyl)pyridazin-4-yl)-2,7-diazaspiro[3.5]nonan-7-yl)pyrimidin-2-yl)prop-2-yn-1-yl)pyrazolo[1,5-a]pyrimidine-2-carboxamide]
17 | 50 to 500 nM | 30 to 70% | 50 to 500 nM | ++ (++=30-70%) | Nc1nnc(-c2ccccc2O)cc1N1CCC2(CCN(c3ccnc(C#CCNC(=O)c4cc5ncccn5n4)n3)C2)CC1 [Compound P-32, N-(3-(4-(8-(3-amino-6-(2-hydroxyphenyl)pyridazin-4-yl)-2,8-diazaspiro[4.5]decan-2-yl)pyrimidin-2-yl)prop-2-yn-1-yl)pyrazolo[1,5-a]pyrimidine-2-carboxamide]

Row | Structure (SMILES) | DC50 [1] | inhibition at 1 µM [1] | DC50 [2] | SMARCA2 % Degradation @ 1 μM [2]
18 | Nc1nnc(-c2ccccc2O)cc1N1C2CCC1CN(c1ccnc(C#CCCNC(=O)c3cc4ncccn4n3)n1)C2 [Compound P-22, N-(4-(4-(8-(3-amino-6-(2-hydroxyphenyl)pyridazin-4-yl)-3,8-diazabicyclo[3.2.1]octan-3-yl)pyrimidin-2-yl)but-3-yn-1-yl)pyrazolo[1,5-a]pyrimidinc-2-carboxamide] | 500 to 5000 nM | 30 to 70% | 500 to 5000 nM | ++ (++=30-70%)
